Experiments:
TycA = molecular target: T1, TycA (Brevibacillus parabrevis, UniProt P09095); type: biochemical, Brevibacillus brevis; conditions: ATP at apparent saturation
T1 construct: this wild-type tycA cDNA encoding the A-, T-, and E-domains was subcloned into a pSU18 vector; made in house; host or cells: Escherichia coli BL21(DE3)
T1 sequence (P09095 with tags, fused parts or gaps): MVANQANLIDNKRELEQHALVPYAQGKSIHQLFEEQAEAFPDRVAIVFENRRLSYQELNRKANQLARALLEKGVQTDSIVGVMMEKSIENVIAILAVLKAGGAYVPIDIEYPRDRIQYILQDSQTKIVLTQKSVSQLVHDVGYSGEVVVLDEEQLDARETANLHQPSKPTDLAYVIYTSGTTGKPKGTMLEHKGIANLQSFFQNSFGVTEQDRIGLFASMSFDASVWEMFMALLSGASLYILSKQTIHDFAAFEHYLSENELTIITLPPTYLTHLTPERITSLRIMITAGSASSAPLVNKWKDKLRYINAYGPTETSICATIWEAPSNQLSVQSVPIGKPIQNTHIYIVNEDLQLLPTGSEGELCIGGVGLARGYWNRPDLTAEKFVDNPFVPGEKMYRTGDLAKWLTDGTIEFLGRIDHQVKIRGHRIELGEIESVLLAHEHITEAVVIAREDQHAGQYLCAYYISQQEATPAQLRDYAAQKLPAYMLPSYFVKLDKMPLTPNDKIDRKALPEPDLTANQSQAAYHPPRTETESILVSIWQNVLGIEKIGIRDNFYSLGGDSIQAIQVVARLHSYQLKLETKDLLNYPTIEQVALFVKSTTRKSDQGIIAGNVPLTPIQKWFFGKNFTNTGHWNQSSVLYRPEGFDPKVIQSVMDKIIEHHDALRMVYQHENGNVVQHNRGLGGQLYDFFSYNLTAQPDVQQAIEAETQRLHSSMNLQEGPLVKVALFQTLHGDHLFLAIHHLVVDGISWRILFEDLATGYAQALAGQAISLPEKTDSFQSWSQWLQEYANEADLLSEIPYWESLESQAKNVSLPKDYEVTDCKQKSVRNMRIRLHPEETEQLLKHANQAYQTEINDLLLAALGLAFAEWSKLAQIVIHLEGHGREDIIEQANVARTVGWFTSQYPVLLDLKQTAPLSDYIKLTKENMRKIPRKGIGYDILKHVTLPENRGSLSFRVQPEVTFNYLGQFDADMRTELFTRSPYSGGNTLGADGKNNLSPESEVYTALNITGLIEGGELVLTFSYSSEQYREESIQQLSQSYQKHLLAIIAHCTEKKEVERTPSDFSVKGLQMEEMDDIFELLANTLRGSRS
Protocol: (§1) Each (S)-α-phenylalanine, (R)-β-phenylalanine, and (2R,3S)-phenylisoserine substrate (at 1 mM) was separately incubated (31° C.) in 100-μL reactions containing 100 mM HEPES (pH 8.0), ATP (1 mM), MgCl2 (3 mM) and TycA or TycA-S563A (20 μg in 0.1-mL assays) to establish steady-state conditions relative to protein concentration and time. Under steady-state conditions, each (S)-α-phenylalanine, (R)-β-phenylalanine, and (2R,3S)-phenylisoserine substrate, at ten concentration intervals from 5 to 1000 μM (in duplicate), was separately incubated with TycA or TycA-S563A for 1 min at 31° C. The reactions were acid-quenched (pH 3 with 10% formic acid), and the biosynthetic products were quantified by LC-ESI-MRM mass spectrometry (Anderson and Hunter, 2006) on the LC-QP/ESI-MS/MS fitted with a C18 Ascentis Express column (2.5×50 mm, 2.7 μm) at 30° C. An aliquot (5 μL) of each sample was loaded onto the column and the analytes were eluted with the CoA-Elution Gradient (see procedures described above). The effluent from the chromatography column was directed to the mass spectrometer where the first quadrupole mass analyzer (in negative ion mode) was set to select for the molecular ion of a biosynthesized (S)-α-phenylalanine-AMP, (R)-β-phenylalanine-AMP, and (2R,3S)-phenylisoserine-AMP. […]

TycA-S563A = TycA-S563A (Brevibacillus parabrevis, UniProt P09095, S563A); type: biochemical, Brevibacillus brevis; set-up: The T-domain mutant TycA-S563A was also subcloned into a pSU18 vector and heterologously expressed as a His6-fusion; made in house; host or cells: Escherichia coli BL21(DE3)
Protocol: as §1

SMILES: N[C@H](CC(=O)O)c1ccccc1 [(R)-β-Phe, (R)-β-phenylalanine]
- kcat^ATP/KM of TycA lower than the value for conversion to the CoA thioester (TycA): ~15 fold
- kcat^ATP (TycA; acyl-AMP formation): 0.00167 ± 0.00017 s⁻¹
- kcat^ATP/KM of TycA-S563A lower than the value for conversion to the CoA thioester (TycA-S563A): about 46 fold
- kcat^ATP (TycA-S563A; acyl-AMP formation, ATP at apparent saturation): 0.001 ± 0.00017 s⁻¹

Reference: US20170342451A1, “BIOSYNTHESIS OF PACLITAXEL INTERMEDIATE” (Board of Trustees of Michigan State University, priority 2012, published 2017)
